Measurements from US12318403B2, “2′3′-cyclic dinucleotides and prodrugs thereof” (INSTITUTE OF ORGANIC CHEMISTRY AND BIOCHEMISTRY ASCR, V.V.I., priority 2019, dated 2025).
Read-outs that look alike come from different tables or passages of the source.

Legend:
[1] = target: human wild type STING (WT STING) (Homo sapiens, UniProt Q86WV6, H232R); assay: 293T WT STING standard reporter assay; type: cell-based; settings: standard reporter assay without digitonin, 7 hours, ISRE firefly luciferase
[2] = test system: peripheral blood mononuclear cell (PBMC); assay: Peripheral blood mononuclear cell assay; settings: average of one to four donors
Description: Selected compounds were tested in an in vitro peripheral blood mononuclear cell (PBMC) assay. […] Serially diluted tested compounds were added to wells in 50 μl of cultivation medium and cells were incubated with the compounds for 1h at 37° C. with 5% CO2. Plates with cells were then spun 500 g for 5 minutes and the medium was removed. Cells were washed twice with the cell culture medium by the use of centrifugation and gently resuspended in 100 μl medium without compounds. After 15 hour incubation at 37° C. with 5% CO2, the cell culture medium was collected and the levels of interferon-alpha (INF-α), interferon-gamma (INF-γ) and tumor necrosis factor-alpha (TNF-α) were determined with ProcartaPlex Assays (ThermoFisher, Waltham, USA) and MAGPIX System (Merck KGaA, Darmstadt, Germany). […] Values reported are an average of runs from one to four donors.

[3] = 293T WT STING EC50, 293T wtSTING-FL cells
[4] = PBMC, read-out: PBMC EC50 IFN-α, compounds 1h, washed, 15 hour incubation, interferon-alpha level in medium
[5] = PBMC, read-out: PBMC EC50 IFN-γ, compounds 1h, washed, 15 hour incubation, interferon-gamma level in medium
[6] = read-out: PBMC EC50 IFN-α, compounds 1h, washed, 15 hour incubation, interferon-alpha level in medium
[7] = read-out: PBMC EC50 TNF-α, compounds 1h, washed, 15 hour incubation, tumor necrosis factor-alpha level in medium
[8] = 293T wtSTING-FL cells, read-out: 293T WT STING EC50
[9] = read-out: PBMC EC50 IFN-γ, compounds 1h, washed, 15 hour incubation, interferon-gamma level in medium

Chain of human wild type STING (WT STING) (Q86WV6 whole entry H232R): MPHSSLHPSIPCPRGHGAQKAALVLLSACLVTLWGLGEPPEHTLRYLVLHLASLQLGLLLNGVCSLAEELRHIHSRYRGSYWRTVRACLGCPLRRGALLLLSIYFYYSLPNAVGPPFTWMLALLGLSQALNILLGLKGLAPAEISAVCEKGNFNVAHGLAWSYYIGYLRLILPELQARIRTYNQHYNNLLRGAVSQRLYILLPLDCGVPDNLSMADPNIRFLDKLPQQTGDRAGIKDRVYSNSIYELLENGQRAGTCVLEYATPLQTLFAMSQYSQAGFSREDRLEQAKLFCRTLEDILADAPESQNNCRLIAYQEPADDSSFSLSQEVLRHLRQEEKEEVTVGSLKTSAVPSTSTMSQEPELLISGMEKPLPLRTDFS

Work on `CC(C)(C)C(=O)OCOc1ccc(CSP2(=O)CO[C@H]3[C@@H](F)[C@H](n4cnc5c(N)ncnc54)O[C@@H]3COP(=O)(O)O[C@@H]3[C@H](F)[C@@H](CO2)O[C@H]3n2cnc3c(=O)[nH]c(N)nc32)cc1` (single isomer, unassigned) [Compound 44a] yielded an EC50 [1, 3] of 1900 nM.

In the case of `CC(C)(C)C(=O)OCOc1ccc(CSP2(=O)CO[C@H]3[C@@H](F)[C@H](n4cnc5c(N)ncnc54)O[C@@H]3COP(=O)(O)O[C@@H]3[C@H](F)[C@@H](CO2)O[C@H]3n2cnc3c(=O)[nH]c(N)nc32)cc1` (single isomer, unassigned) [Compound 44b], the EC50 [1, 3] is reported as 500 nM.

Molecule `CCCCCCCC(=O)Oc1ccc(CSP2(=O)CO[C@H]3[C@@H](F)[C@H](n4cnc5c(N)ncnc54)O[C@@H]3COP(=O)(O)O[C@@H]3[C@H](F)[C@@H](CO2)O[C@H]3n2cnc3c(=O)[nH]c(N)nc32)cc1` (single isomer, unassigned) [Compound 45a] has an EC50 [1, 3] of 300 nM.

Work on `CCCCCCCC(=O)Oc1ccc(CSP2(=O)CO[C@H]3[C@@H](F)[C@H](n4cnc5c(N)ncnc54)O[C@@H]3COP(=O)(O)O[C@@H]3[C@H](F)[C@@H](CO2)O[C@H]3n2cnc3c(=O)[nH]c(N)nc32)cc1` (single isomer, unassigned) [Compound 45b] yielded an EC50 [1, 3] of 150 nM.

`CCCCCCCCCC(=O)Oc1ccc(CSP2(=O)CO[C@H]3[C@@H](F)[C@H](n4cnc5c(N)ncnc54)O[C@@H]3COP(=O)(O)O[C@@H]3[C@H](F)[C@@H](CO2)O[C@H]3n2cnc3c(=O)[nH]c(N)nc32)cc1` (single isomer, unassigned) [Compound 46a] was tested, and the EC50 [1, 3] was 60 nM.

Work on `CCCCCCCCCC(=O)Oc1ccc(CSP2(=O)CO[C@H]3[C@@H](F)[C@H](n4cnc5c(N)ncnc54)O[C@@H]3COP(=O)(O)O[C@@H]3[C@H](F)[C@@H](CO2)O[C@H]3n2cnc3c(=O)[nH]c(N)nc32)cc1` (single isomer, unassigned) [Compound 46b] yielded an EC50 ([1]; read-out: 293T WT STING EC50, 293T wtSTING-FL cells) of 60 nM.

`CCCCCCCCCCCC(=O)Oc1ccc(CSP2(=O)CO[C@H]3[C@@H](F)[C@H](n4cnc5c(N)ncnc54)O[C@@H]3COP(=O)(O)O[C@@H]3[C@H](F)[C@@H](CO2)O[C@H]3n2cnc3c(=O)[nH]c(N)nc32)cc1` (single isomer, unassigned) [Compound 47a] gave an EC50 [1, 3] of 50 nM.

`CCCCCCCCCCCC(=O)Oc1ccc(CSP2(=O)CO[C@H]3[C@@H](F)[C@H](n4cnc5c(N)ncnc54)O[C@@H]3COP(=O)(O)O[C@@H]3[C@H](F)[C@@H](CO2)O[C@H]3n2cnc3c(=O)[nH]c(N)nc32)cc1` (single isomer, unassigned) [Compound 47b] gave an EC50 [1, 3] of 90 nM.

In the case of `CCCC(=O)Oc1ccc(CSP2(=O)CO[C@H]3[C@@H](F)[C@H](n4cnc5c(N)ncnc54)O[C@@H]3COP(=O)(O)O[C@@H]3[C@H](F)[C@@H](CO2)O[C@H]3n2cnc3c(=O)[nH]c(N)nc32)cc1` (single isomer, unassigned) [Compound 48a], the EC50 [1, 3] is reported as 5600 nM.

For `CCCC(=O)Oc1ccc(CSP2(=O)CO[C@H]3[C@@H](F)[C@H](n4cnc5c(N)ncnc54)O[C@@H]3COP(=O)(O)O[C@@H]3[C@H](F)[C@@H](CO2)O[C@H]3n2cnc3c(=O)[nH]c(N)nc32)cc1` (single isomer, unassigned) [Compound 48b], the EC50 [1, 3] was 3400 nM.

Molecule `CCCCCC(=O)Oc1ccc(C(=O)Oc2ccc(CSP3(=O)CO[C@H]4[C@@H](F)[C@H](n5cnc6c(N)ncnc65)O[C@@H]4COP(=O)(O)O[C@@H]4[C@H](F)[C@@H](CO3)O[C@H]4n3cnc4c(=O)[nH]c(N)nc43)cc2)cc1` (single isomer, unassigned) [Compound 49a] has an EC50 [1, 3] of 1800 nM.

With `CCCCCC(=O)Oc1ccc(C(=O)Oc2ccc(CSP3(=O)CO[C@H]4[C@@H](F)[C@H](n5cnc6c(N)ncnc65)O[C@@H]4COP(=O)(O)O[C@@H]4[C@H](F)[C@@H](CO3)O[C@H]4n3cnc4c(=O)[nH]c(N)nc43)cc2)cc1` (single isomer, unassigned) [Compound 49b] the EC50 [1, 3] was 4500 nM.

Molecule `CC(C)(C)C(=O)OCSP1(=O)CO[C@H]2[C@@H](F)[C@H](n3cnc4c(N)ncnc43)O[C@@H]2COP(=O)(SCOC(=O)C(C)(C)C)O[C@@H]2[C@H](F)[C@@H](CO1)O[C@H]2n1cnc2c(=O)[nH]c(N)nc21` (single isomer, unassigned) [Compound 55c] has an EC50 [2, 4] of 10000 nM, an EC50 [2, 5] of 3700 nM and an EC50 ([2]; PBMC, read-out: PBMC EC50 TNF-α, compounds 1h, washed, 15 hour incubation, tumor necrosis factor-alpha level in medium) of 7000 nM. The EC50 [1, 3] was 650 nM.

`CC(C)(C)C(=O)OCSP1(=O)CO[C@H]2[C@@H](F)[C@H](n3cnc4c(N)ncnc43)O[C@@H]2COP(=O)(SCOC(=O)C(C)(C)C)O[C@@H]2[C@H](F)[C@@H](CO1)O[C@H]2n1cnc2c(=O)[nH]c(N)nc21` (single isomer, unassigned) [Compound 55d] gave an EC50 [1, 3] of 300 nM.

Work on `CCCCCCCCCCCC(=O)OCSP1(=O)CO[C@H]2[C@@H](F)[C@H](n3cnc4c(N)ncnc43)O[C@@H]2COP(=O)(O)O[C@@H]2[C@H](F)[C@@H](CO1)O[C@H]2n1cnc2c(=O)[nH]c(N)nc21` (single isomer, unassigned) [Compound 76a] yielded an EC50 [1, 3] of 300 nM.

With `CCCCCCCCCCCC(=O)OCSP1(=O)CO[C@H]2[C@@H](F)[C@H](n3cnc4c(N)ncnc43)O[C@@H]2COP(=O)(O)O[C@@H]2[C@H](F)[C@@H](CO1)O[C@H]2n1cnc2c(=O)[nH]c(N)nc21` (single isomer, unassigned) [Compound 76b] the EC50 [1, 3] was 30 nM.

For `CC(C)(C)C(=O)OCOP1(=O)CO[C@H]2[C@@H](F)[C@H](n3cnc4c(N)ncnc43)O[C@@H]2COP(=O)(OCOC(=O)C(C)(C)C)O[C@@H]2[C@H](F)[C@@H](CO1)O[C@H]2n1cnc2c(=O)[nH]cnc21` (single isomer, unassigned) [Compound 77a], the EC50 [2, 5] was 1700 nM, the EC50 [2, 6] was 2800 nM and the EC50 [2, 7] was 1400 nM. The EC50 [1, 8] was 600 nM.

`CC(C)(C)C(=O)OCOP1(=O)CO[C@H]2[C@@H](F)[C@H](n3cnc4c(N)ncnc43)O[C@@H]2COP(=O)(OCOC(=O)C(C)(C)C)O[C@@H]2[C@H](F)[C@@H](CO1)O[C@H]2n1cnc2c(=O)[nH]cnc21` (single isomer, unassigned) [Compound 77b] was tested, and the EC50 [2, 6] was 4000 nM, the EC50 [2, 9] was 3000 nM and the EC50 [2, 7] was 3600 nM. It also gave an EC50 [1, 8] of 300 nM.

For `CC(C)(C)C(=O)OCOP1(=O)CO[C@H]2[C@@H](F)[C@H](n3cnc4c(N)ncnc43)O[C@@H]2COP(=O)(OCOC(=O)C(C)(C)C)O[C@@H]2[C@H](F)[C@@H](CO1)O[C@H]2n1cnc2c(=O)[nH]cnc21` (single isomer, unassigned) [Compound 77c], the EC50 [2, 6] was 700 nM, the EC50 [2, 9] was 2300 nM and the EC50 [2, 7] was 3700 nM. It also gave an EC50 [1, 8] of 200 nM.

`CCCCCCCCCCCC(=O)OCSP1(=O)CO[C@H]2[C@@H](F)[C@H](n3cnc4c(N)ncnc43)O[C@@H]2COP(=O)(SCOC(=O)CCCCCCCCCCC)O[C@@H]2[C@H](F)[C@@H](CO1)O[C@H]2n1cnc2c(=O)[nH]c(N)nc21` (single isomer, unassigned) [Compound 78c] was tested, and the EC50 [2, 4] was 3400 nM, the EC50 [2, 7] was 3000 nM and the EC50 [1, 3] was 60 nM.

`CCCCCCCCCCCC(=O)OCSP1(=O)CO[C@H]2[C@@H](F)[C@H](n3cnc4c(N)ncnc43)O[C@@H]2COP(=O)(SCOC(=O)CCCCCCCCCCC)O[C@@H]2[C@H](F)[C@@H](CO1)O[C@H]2n1cnc2c(=O)[nH]c(N)nc21` (single isomer, unassigned) [Compound 78d] gave an EC50 [2, 6] of 3400 nM, an EC50 [2, 7] of 800 nM and an EC50 [1, 3] of 40 nM.

Molecule `CCCCCCCCCCCC(=O)OCOP1(=O)CO[C@H]2[C@@H](F)[C@H](n3cnc4c(N)ncnc43)O[C@@H]2COP(=O)(OCOC(=O)CCCCCCCCCCC)O[C@@H]2[C@H](F)[C@@H](CO1)O[C@H]2n1cnc2c(=O)[nH]cnc21` (single isomer, unassigned) [Compound 79a] has an EC50 [2, 4] of 200 nM, an EC50 [2, 9] of 100 nM and an EC50 [1, 8] of 3 nM.

With `CC(C)(C)C(=O)OCOP1(=O)CO[C@H]2[C@@H](F)[C@H](n3cnc4c(N)ncnc43)O[C@@H]2COP(=O)(OCOC(=O)C(C)(C)C)O[C@@H]2[C@H](F)[C@@H](CO1)O[C@H]2n1cnc2c(N)ncnc21` (single isomer, unassigned) [Compound 81c] the EC50 [1, 8] was 140 nM.

`CSP1(=O)CO[C@H]2[C@@H](F)[C@H](n3cnc4c(N)ncnc43)O[C@@H]2COP(=O)(SC)O[C@@H]2[C@H](F)[C@@H](CO1)O[C@H]2n1cnc2c(=O)[nH]c(N)nc21` (stereo partly drawn) [Compound 52c, (1S,6R,8R,9R,10R,16R,18R,19R)-18-(2-amino-6-oxo-6,9-dihydro-1H-purin-9-yl)-8-(6-amino-9H-purin-9-yl)-9,19-difluoro-3,13-bis(methylsulfanyl)-2,4,7,11,14,17-hexaoxa-3λ^5,13λ^5-diphosphatricyclo[14.2.1.0^6,10]nonadecane-3,13-dione] showed an EC50 [1, 3] of over 20000 nM.

`CCCCCCCC(=O)OCSP1(=O)CO[C@H]2[C@@H](F)[C@H](n3cnc4c(N)ncnc43)O[C@@H]2COP(=O)(SCOC(=O)CCCCCCC)O[C@@H]2[C@H](F)[C@@H](CO1)O[C@H]2n1cnc2c(=O)[nH]c(N)nc21` (stereo partly drawn) [Compound 69b, {[(1S,6R,8R,9R,10R,16R,18R,19R)-18-(2-amino-6-oxo-6,9-dihydro-1H-purin-9-yl)-8-(6-amino-9H-purin-9-yl)-9,19-difluoro-13-{[(octanoyloxy)methyl]sulfanyl}-3,13-dioxo-2,4,7,11,14,17-hexaoxa-3λ^5,13λ^5-diphosphatricyclo[14.2.1.0^6,10]nonadecan-3-yl]sulfanyl}methyl octanoate] gave an EC50 [1, 3] of 200 nM.
